The values that follow are results of earlier work, collected in publication PMC6426469 (Science Advances, 2019).

One data set deals with DG granule cells. The settings on record: previous study.
The subject of data set [1] is APP/PS1 mice. As to conditions: prolonged treatment for 30 days.
Data set [2] relates to APP/PS1 mice. The settings on record: 1-week treatment.

For `C[C@H](NCc1ccc(OCc2cccc(F)c2)cc1)C(N)=O` [safinamide], the “efficacy on spike probability” value in the data set with DG granule cells is given as “showed prolonged efficacy”.
Regarding `C#CCN(C)[C@H](C)Cc1ccccc1` [Selegiline, selegiline], the “spatial memory impairments, Morris water maze” value with APP/PS1 mice [1] is on record as “failed to significantly reverse spatial memory impairments”. Also, the “memory impairments, passive avoidance test” value in the data set on APP/PS1 mice [2] is “effective in rescuing memory impairments”.
